The values below come from publication PMC5515279 (2014).

The subject of assay [1] is TA[Q] (DNA, G4) TAGGGTTAGGGTTAGGGTTAGGG
Nature of the assay: fluorescence titration. The note with it: K+ 0.1 M; 25 mM Tris-HCl pH 7.5, 1 mM EDTA, 18 °C; 0.5 μM compound.

The subject of assay [2] is rUA[Q] (RNA, G4) UAGGGUUAGGGUUAGGGUUAGGG
Nature of the assay: fluorescence titration. Particulars: K+ 0.1 M; 25 mM Tris-HCl pH 7.5, 1 mM EDTA, 18 °C (general conditions).

Each structure is given as a SMILES string.

A word on the Kd: it is the concentration at which binding is half-saturated. A higher Kd goes with lower affinity. In the case of `COc1cc2c(cc1OC)-c1cc3ccc4c(c3c[n+]1CC2)OCO4`, the Kd in assay [1] is 37 ± 8 nM. In addition, the binding constant entry in assay [2] is “(1.2 ± 0.2) × 10^6 M^-1”.
For the compound `COc1ccc2cc3[n+](cc2c1OC)CCc1cc2c(cc1-3)OCO2`, in assay [1], the K11 entry is “(4.1 ± 0.4) × 10^5 M^-1”.
Same read-out and setting: the result for `COc1cc2c(cc1OC)-c1cc3ccc(OC)c(OC)c3c[n+]1CC2` reads “(4.1 ± 0.4) × 10^5 M^-1”; that for `c1c2c(cc3c1OCO3)-c1cc3ccc4c(c3c[n+]1CC2)OCO4`, “(1.4 ± 0.5) × 10^6 M^-1”.
For `Cc1c2[n+](cc3c4c(ccc13)OCO4)CCc1cc3c(cc1-2)OCO3`, the K11 result in assay [1] is “(5.1 ± 0.4) × 10^5 M^-1”.
